Assay results reported in paper PMC7600679, “Benzoxazole-Based Metal Complexes to Reverse Multidrug Resistance in Bacteria” (Antibiotics, 2020).
Read-outs that look alike come from different tables or passages of the source.

How the values were obtained:
[1] = system: Chromobacterium violaceum 026; experiment: Minimum inhibitory concentration (broth microdilution, CLSI); assay type: cell-based; conditions: C. violaceum 026
Method: (§1) The following bacterial strains were applied in the QS tests: C. violaceum 026 as sensor strain and E. cloacae 31298 isolated from clinical wound (used as N-acyl-homoserine lactone (AHL) producer); this strain induced pigment production by C. violaceum and is a model strain to study QS interactions.
(§2) The minimum inhibitory concentrations (MICs) of compounds were determined in 96-well plates based on the Clinical and Laboratory Standard Institute guidelines (CLSI guidelines). The compounds were diluted in 100 μL of MHB. Then, 10^−4 dilution of an overnight bacterial culture in 100 μL of medium were added to each well, with the exception of the medium control wells.

[2] = system: Enterobacter cloacae 31298; experiment: as above; assay type: cell-based; conditions: E. cloacae 31298
Method: as §1, §2

E. coli AG100 A [3] = experiment: Real-time ethidium bromide accumulation (efflux pump inhibition); assay type: cell-based, Escherichia coli; conditions: compounds at ¼ MIC, EB 1 μg/mL, minute 30
Method: (§3) Since multidrug resistance EPs are very important factors contributing to multidrug resistance (MDR) in both Gram-positive and Gram-negative bacteria, the inhibition of these pumps could reverse the resistant phenotype and restore the activity of antibiotics. The effect of compounds on ethidium bromide (EB) accumulation was determined by the automated EB method. This assay was used to determine how much of the fluorescent dye and pump substrate EB was accumulated by the bacterial cells in the presence of the tested compounds. The real-time accumulation of EB was monitored for 30 min in both S. aureus and E. coli strains.
(§4) The accumulation of the efflux pump substrate EB was monitored by the automated EB method using a LightCycler real-time thermocycler (LightCycler 1.5, Roche, Indianapolis, IN, USA). An aliquot of an overnight culture of the S. aureus strains in TSB medium was inoculated into fresh TSB medium, and it was incubated until it reached an optical density (OD) of 0.6 at 600 nm. In the case of E. coli strains, the medium applied in the assay was LB broth; the preparation of the inoculum was similar to the one of S. aureus. The cells were washed with phosphate buffered saline (PBS; pH 7.4) and centrifuged at 13,000 × g for 3 min, the pellets were re-suspended in PBS (pH 7.4), and the OD was calibrated to 0.6 at 600 nm. The compounds were measured at ¼ MIC concentration (in double-concentrated form) to the EB solution in PBS. The final concentration of EB was determined according to the MIC and the fluorescent signal produced by this amount of EB. In the case of all strains, the concentration of EB was 1 μg/mL. Then, 10 μL of the EB solution plus the compound were pipetted into standard glass capillary tubes of 20 µL maximum volume (Roche, Indianapolis, USA), and 10 μL of bacterial culture (OD of 0.6 at 600 nm) were transferred to the capillaries. The capillaries containing the samples were placed into the carousel, and the fluorescence was monitored at the FL-2 channel in every minute on a real-time basis.
(§5) Based on the data obtained, the relative fluorescence index (RFI) of the last time point (minute 30) was determined as follows:RFI = (RFtreated − RFuntreated)/RFuntreated(1) where RFtreated is the relative fluorescence (RF) at the last time point of the EB retention curve in the presence of an inhibitor, and RFuntreated is the relative fluorescence at the last time point of the EB retention curve of the untreated control having the solvent control (DMSO).

E. coli AG100 A [4] = experiment: Minimum inhibitory concentration (broth microdilution, CLSI); assay type: cell-based, Escherichia coli; conditions: 18 h
Method: Wild-type E. coli K-12 AG100 strain (argE3 thi-1 rpsL xyl mtl Δ(gal-uvrB) supE44) expressing the AcrAB TolC EP at its basal level and its AcrAB-TolC deleted mutant E. coli K-12 AG100 A strain. The strains were donated by Prof. Dr. Hiroshi Nikaido (Department of Molecular and Cell Biology and Chemistry, University of California, Berkeley, CA, USA).
as §2

[5] = system: MRC-5 human embryonal lung fibroblast cell line; experiment: Cytotoxicity assay (MTT); assay type: cell-based
Method: The MRC-5 human embryonic lung fibroblast cell line (ATCC CCL-171; provider: LGC Promochem, Teddington, UK) was used in the experiments. The cells were cultivated in Eagle’s Minimal Essential Medium (EMEM; Sigma–Aldrich, St. Louis, MO, USA), supplemented with 1% non-essential amino acid mixture, 10% heat-inactivated fetal bovine serum, 2 mM L-glutamine, 1 mM Na-pyruvate, nystatin, and a penicillin–streptomycin mixture in concentrations of 100 U/L and 10 mg/L, respectively. The supplementary components were obtained from Sigma–Aldrich, St. Louis, MO, USA. The cell culture was kept in a humidified atmosphere (5% CO2, 95% air) at 37 °C.
The activity of increasing concentrations of the compounds on cell growth was determined in 96-well flat-bottomed microtiter plates by two-fold serial dilutions of the benzoxazole derivatives. The adherent human embryonic lung fibroblast cells (10^4/well) was seeded in EMEM medium in 96-well microtiter plates for 4 h prior to the assay. The serial dilutions of the compounds were made in a separate plate, and then pipetted to the plates containing the MRC-5 cell line. Culture plates were incubated at 37 °C for 24 h; at the end of the incubation period, 20 μL of MTT (3-(4,5-dimethylthiazol-2-yl)-2,5-diphenyltetrazolium bromide) solution (from a 5 mg/mL stock solution) was measured to each well. After the incubation at 37 °C for 4 h, 100 μL of sodium dodecyl sulfate (SDS) solution (10% SDS in 0.01 M HCl) was added to each well to dissolve the formazan crystals and the samples were further incubated at 37 °C overnight. Cell growth was calculated by measuring the OD at 540 nm (ref. 630 nm) with a Multiscan EX ELISA reader. The cytotoxicity was expressed as IC50 values, defined as the inhibitory dose that reduces the growth of the cells exposed to the tested compounds by 50%.

E. coli AG100 [6] = experiment: Real-time ethidium bromide accumulation (efflux pump inhibition, AcrAB-TolC); assay type: cell-based, Escherichia coli; conditions: compounds at ¼ MIC, EB 1 μg/mL, minute 30
Method: as §3, §4, §5

[7] = system: Staphylococcus aureus ATCC 25923; experiment: Minimum inhibitory concentration (broth microdilution, CLSI); assay type: cell-based; conditions: S. aureus ATCC 25923, 18 h, visual inspection
Method: (§6) The compounds were further investigated against two Gram-positive strains, S. aureus ATCC 25923 (MSSA), used as the methicillin susceptible reference strain, and the methicillin- and ofloxacin-resistant S. aureus 272123 clinical isolate (MRSA), which was given by Prof. Dr. Leonard Amaral (Institute of Hygiene and Tropical Medicine, Lisbon, Portugal).
as §2

S. aureus 272123 (MRSA) [8] = experiment: as above; assay type: cell-based, Staphylococcus aureus; conditions: 18 h, visual inspection
Method: as §6, §2

E. coli AG100 [9] = experiment: as above; assay type: cell-based, Escherichia coli; conditions: E. coli AG100, 18 h, visual inspection, read-out: MIC
Method: The strains were donated by Prof. Dr. Hiroshi Nikaido (Department of Molecular and Cell Biology and Chemistry, University of California, Berkeley, CA, USA).
as §2

S. aureus 272123 (MRSA) [10] = experiment: Real-time ethidium bromide accumulation (efflux pump inhibition); assay type: cell-based, Staphylococcus aureus; conditions: compounds at ¼ MIC (3 at 12.5 µM), VER at 25 µM, EB 1 μg/mL, minute 30
Method: as §3, §4, §5

S. aureus ATCC 25923 = experiment: as above; assay type: cell-based, Staphylococcus aureus; conditions: compounds at ¼ MIC, EB 1 μg/mL, minute 30
Method: as §3, §4, §5

S. aureus MRSA 272123 = experiment: Resistance modulation (MIC reduction) assay with CIP and TET; assay type: cell-based, Staphylococcus aureus; conditions: for Reduction of the MIC value of CIP: compound at a quarter of the MIC; for CIP MIC in combination with compounds: compound at ¼ MIC, value is the MIC of ciprofloxacin
Method: (§7) The resistance modulation effects of compounds with ciprofloxacin (CIP) and tetracycline (TET) antibiotics were evaluated by the MIC reduction method on the Gram-negative E. coli AG100, AG100 A, and the Gram-positive S. aureus ATCC and MRSA strains.
(§8) The chemosensitizing activity of benzoxazole-type ligands and their metal complexes was determined based on the MIC values of the antibiotics in the presence of sub-inhibitory concentrations of the compounds (¼ MIC) in both Gram-negative and Gram-positive strains. The MICs were determined in strains by the two-fold broth microdilution method in 96-well plates, using serial dilutions of TET and CIP. The first four rows contained two-fold dilutions of antibiotics, and combinations of the TET and CIP and tested compounds were transferred into the last four rows. The 10^−4 dilution of an overnight bacterial culture in 50 μL of MHB was then measured to each well, except for the medium control wells. The plates were kept at 37 °C for 18 h. MIC values of antibiotics and their combination with tested compounds were detected by visual inspection.

E. coli AG100 [11] = experiment: as above; assay type: cell-based, Escherichia coli; conditions: for CIP MIC in combination with compounds: value is the MIC of ciprofloxacin
Method: as §7, §8

[12] = E. coli AG100 A (AcrAB-TolC deleted), visual inspection

SMILES	MIC [1]	MIC [2]	Relative fluorescence index (RFI) (E. coli AG100 A [3])	MIC (E. coli AG100 A [4]; [12])	Cytotoxic effect (class in words) ([5]; 24 h)	IC50 ([5]; 24 h)	Relative fluorescence index (RFI) (E. coli AG100 [6])	MIC [7]	MIC (S. aureus 272123 (MRSA) [8])	MIC (E. coli AG100 [9])	Relative fluorescence index (RFI) (S. aureus 272123 (MRSA) [10])	Relative fluorescence index (RFI) (S. aureus ATCC 25923)	Reduction of the MIC value of CIP (S. aureus MRSA 272123)	CIP MIC in combination with compounds (S. aureus MRSA 272123)	CIP MIC in combination with compounds (E. coli AG100 [11]; compound at ¼ MIC)	other results
[O-]C(=Cc1nc2ccccc2o1)C(F)F.[O-]C(=Cc1nc2ccccc2o1)C(F)F.[Zn+2] [Compound 6]	>100 µM	>100 µM	−0.15	12.5 µM	strong (IC50: 0–30)	4.72 µM	0.08	25 µM	12.5 µM	50 µM	−0.02	0.08				
[Cu+2].[O-]C(=Cc1nc2ccccc2o1)C(F)(F)F.[O-]C(=Cc1nc2ccccc2o1)C(F)(F)F [Compound 7]	>100 µM	>100 µM	0.11	12.5 µM	weak (IC50: 61–100)	76.1 µM	−0.06	12.5 µM	3.125 µM	>100 µM	−0.01	0.12	2 fold	6.25 µM	0.016 µM	
FC(F)(F)C1=Cc2oc3ccccc3[n+]2[Mg-2]2([O]1)[O]C(C(F)(F)F)=Cc1oc3ccccc3[n+]12 [Compound 9]					no (IC50 > 100 µM)								2 fold	6.25 µM	0.008 µM	MIC ([1]; Chromobacterium violaceum): > 100 µM; MIC ([2]; Enterobacter cloacae): > 100 µM; MIC (E. coli AG100 A [4]; Escherichia coli, AG100A): 25 µM; IC50 ([5]; Homo sapiens, MRC5, 24 h): > 100 µM; MIC ([7]; Staphylococcus aureus, ATCC25923): 25 µM; MIC (S. aureus 272123 (MRSA) [8]; Staphylococcus aureus): 6.25 µM; MIC (E. coli AG100 [9]; Escherichia coli): 50 µM; Reduction of the MIC of CIP (E. coli AG100 [11]; compound at ¼ MIC): 2 fold
[O-]C(=Cc1nc2ccccc2o1)C(F)(F)F.[O-]C(=Cc1nc2ccccc2o1)C(F)(F)F.[Pd+2] [Compound 10]	>100 µM	>100 µM	0	>100 µM	weak (IC50: 61–100)	89.1 µM	−0.06	>100 µM	>100 µM	>100 µM	0	0				
CN(C)[C@@H]1C(O)=C(C(N)=O)C(=O)[C@@]2(O)C(O)=C3C(=O)c4c(O)cccc4[C@@](C)(O)[C@H]3C[C@@H]12 [TET, tetracycline, reference compound]																MIC of antibiotic in the absence of the compounds (S. aureus MRSA 272123; antibiotic alone): 6.25 µM; MIC of antibiotic in the absence of the compounds (E. coli AG100 [11]; antibiotic alone): 50 µM
